Test results reported in patent US20090082304A1, “Methods of Treating Hematological Malignancies with Nucleoside Analog Drugs” (NORTHWESTERN UNIVERSITY, priority 2004, published 2009).

Experiments:
Format in all cases: cell-based
ATF-2 = assay: Immunoblot of phospho-ATF-2 in MM.1 S cells; details: 10 μM, by 2 hours
Procedure: (§1) 5×10^6 were cells treated with 10 μM 8-NH2-Ado for the indicated times and harvested. Cell pellets were washed with cold phosphate-buffered saline (PBS; 8.1 g NaCl, 1.14 g Na2HPO4, 0.22 g KCl, and 0.25 g/L KH2PO4) and incubated with lysis buffer (50 mM HEPES, 150 mM NaCl, 1.5 mM MgCl2, 1 mM EDTA pH 8.0, 100 mM NaFI, 10 mM Na Pyrophosphate, 500 μM PMSF, 0.5% Triton X-100, 10% glycerol) at 4° C. for one hour. Lysates were centrifuged at 4° C. for 1 minute at 9000×g, and the supernatants were collected and stored at −20° C. Protein concentration was determined by Bio-Rad protein assay (BioRad Laboratories, Hercules, Calif.). Protein, at a concentration of 30 μg, was mixed with sample buffer (125 mM Tris, pH 6.8, 4% SDS, 20% glycerol, 100 mM Dithiothreitol (DTT), and 0.05% bromophenol blue), and fractionated on a pre-cast 8-16% Tris-Glycine gel (Invitrogen/Novex, Carlsbad, Calif.). Proteins were then transferred to a Polyvinylidene Fluoride (PVDF) membrane (Immobilon-P, Millipore, Bedford, Mass.): Following protein transfer, membranes were blocked with 5% non-fat milk in PBS-T (PBS with 0.1% Tween), incubated with the primary antibody overnight at 4° C. and subsequently with horseradish peroxidase linked secondary antibody (Amersham, Arlington Heights, Ill.). […]

ERK1/2 = assay: Immunoblot of phospho-ERK1/2 in MM.1 S cells; details: 10 μM
Procedure: 5×10^6 were cells treated with 10 μM 8-NH2-Ado for the indicated times and harvested. Cell pellets were washed with cold phosphate-buffered saline (PBS; 8.1 g NaCl, 1.14 g Na2HPO4, 0.22 g KCl, and 0.25 g/L KH2PO4) and incubated with lysis buffer (50 mM HEPES, 150 mM NaCl, 1.5 mM MgCl2, 1 mM EDTA pH 8.0, 100 mM NaFI, 10 mM Na Pyrophosphate, 500 μM PMSF, 0.5% Triton X-100, 10% glycerol) at 4° C. for one hour. Lysates were centrifuged at 4° C. for 1 minute at 9000×g, and the supernatants were collected and stored at −20° C. Protein concentration was determined by Bio-Rad protein assay (BioRad Laboratories, Hercules, Calif.). Protein, at a concentration of 30 μg, was mixed with sample buffer (125 mM Tris, pH 6.8, 4% SDS, 20% glycerol, 100 mM Dithiothreitol (DTT), and 0.05% bromophenol blue), and fractionated on a pre-cast 8-16% Tris-Glycine gel (Invitrogen/Novex, Carlsbad, Calif.). Proteins were then transferred to a Polyvinylidene Fluoride (PVDF) membrane (Immobilon-P, Millipore, Bedford, Mass.): Following protein transfer, membranes were blocked with 5% non-fat milk in PBS-T (PBS with 0.1% Tween), incubated with the primary antibody overnight at 4° C. and subsequently with horseradish peroxidase linked secondary antibody (Amersham, Arlington Heights, Ill.). Blots were developed using ECL Plus Chemiluminescent Western Blotting Detection reagent (Amersham, Arlington Heights, Ill.) and the signal was visualized with X-ray film (Hyperfilm, Amersham, Arlington Heights, Ill.). For reprobing purposes, blots were stripped using Restore Western Blot Stripping Buffer from Pierce Biotechnology (Rockford, Ill.). Phospho-MKK3/6 (Ser189/207), phospho-p38 (Thr180/Tyr182), phospho-ATF-2 (Thr69/71), phospho-c-Raf (Ser259), phospho-MEK1/2 (Ser217/221), total MEK1/2, phospho-ERK1/2 (Thr202/Tyr204), total ERK1/2, phospho-p90RSK (Ser380), total RSK, phospho-PDK1 (Ser241), total PDKI, phospho-PTEN (Ser380), total PTEN, phospho-Akt (Ser473), total Akt, phospho-GSK-3β (Ser9), total GSK-3β, phospho-FKHRLI (Thr32)/-FKHR (Thr24), phospho-FKHR (Ser256) primary antibodies were obtained from Cell Signaling Technology (Beverly, Mass.). Total MKK3, total MKK6, total p38, total ATF-2, total c-Raf, total FKHR, total FKHRLI, phospho-JNK and total JNK were purchased from Santa Cruz Biotechnology (Santa Cruz, Calif.). Caspase 3, caspase 9, and PARP antibodies were obtained from Pharmingen (San Diego, Calif.) and anti-MKP1 from Upstate (Lake Placid, N.Y.). Anti-caspase 8 mouse serum was a generous gift of Dr. Marcus Peter (University of Chicago).
MM.1 S cells were exposed to 10 μM 8-NH2-Ado for 0, 0.5, 1, 2, 4 and 6 hours, after which cells were lysed as previously (Example 2). 30 μg of protein was separated by gel electrophoresis, transferred to PVDF membrane, and probed with phosphorylation-specific antibodies to MKK3/6, p38 MAPK, ATF-2, MEK1/2, ERK1/2, p90RSK, JNK1, PDK1, Akt, FKHRL1 and GSK-3β.
MM. I S cells were treated with 10 μM 8-chloro-adenosine for 0, 0.5, 1, 2, 4 or 6 hours or 10 μM of cytarabine, fludarabine, gemcitabine or 8-amino-adenosine for 4 hours. Cells were lysed as previously described and 30 μg of protein was separated by gel electrophoresis, transferred to PVDF membrane, and probed with phospho-p38 MAPK (Thr180/Tyr182) antibody.
MM.1 S cells were grown in dextrose-free media and treated with 2 μM Antimycin A, 5 mM 2-DOG, and varying concentrations of dextrose for 90 minutes. Cellular ATP levels were determined using triplicate samples in a luciferase based assay and are expressed here as a percentage of untreated control.

PDK1 = assay: Immunoblot of PDK1 (total and phosphorylated) in MM.1 S cells; details: 10 μM, 0-6 hours
Procedure: as §1

[1] = tested on: p38 in RPMI-8226, MDR10V and MM.1 R cells; assay: Phosphorylation of p38 in additional myeloma cell lines; details: data not shown
Procedure: as §1, with “Calif.).” for “Calif.). Proteins were then transferred to a Polyvinylidene Fluoride (PVDF) membrane (Immobilon-P, Millipore, Bedford, Mass.): Following protein transfer, membranes were blocked with 5% non-fat milk in PBS-T (PBS with 0.1% Tween), incubated with the primary antibody overnight at 4° C. and subsequently with horseradish peroxidase linked secondary antibody (Amersham, Arlington Heights, Ill.).”
The effect of 8-NH2-Ado treatment on phosphorylation levels was assessed in additional myeloma cell lines, to determine whether the drug-induced alterations in protein phosphorylation occur in multiple cells lines or are limited to the MM.1 S myeloma cell line.

MM cells = tested on: MM cells
Procedure: The MTS assay was performed as described previously (Krett et al., Clin Cancer Res. 3: 1781-1787). Briefly, MM cells were cultured into 96 well dishes at a concentration of 25,000 cells per well and incubated with the 8-NH2-Ado for 72 hours. Cell proliferation was determined using the MTS Cell Titer Aqueous assay (Promega, Madison, Wis.), which measured the conversion of a tetrazolium compound into formazan by a mitochondrial dehydrogenase enzyme in live cells. The quantity of formazan product as measured by the amount of 490 nm absorbance is directly proportional to the number of living cells in culture. The data were expressed as the percentage of formazan produced by the cells treated with the control medium in the same assay.

MKP1 = assay: Immunoblot of MKP1 in MM.1 S cells; details: 10 μM, 0-6 hours
Procedure: as §1, with “Calif.).” for “Calif.). Proteins were then transferred to a Polyvinylidene Fluoride (PVDF) membrane (Immobilon-P, Millipore, Bedford, Mass.): Following protein transfer, membranes were blocked with 5% non-fat milk in PBS-T (PBS with 0.1% Tween), incubated with the primary antibody overnight at 4° C. and subsequently with horseradish peroxidase linked secondary antibody (Amersham, Arlington Heights, Ill.).”
One possible mechanism for the decrease in phosphorylation of the kinase molecules and their substrates is an increase in the activity of the phosphatase(s) that regulate them. To test this hypothesis, levels of MKPI, a dual specificity phosphatase that can act to dephosphorylate p38 MAPK, were assessed MM.1 S cells were exposed to 10 μM 8-NH2-Ado for 0, 0.5, 1, 2, 4 and 6 hours after which cells were lysed as previously described. […]

With `Nc1ncnc2c1nc(N)n2[C@@H]1O[C@H](CO)[C@@H](O)[C@H]1O` [8-NH2-Ado, 8-amino-adenosine] the “levels of phosphorylated ATF-2” value (ATF-2) was “falling considerably”, the “phosphorylation of ERK1/2” value (ERK1/2; 4 hours, data not shown) was “dramatic loss of phosphorylation” and the “Phosphorylation of the ERK1/2 kinases” value (ERK1/2; by 30 minutes) was “decreases significantly”. For the same compound, the “Phosphorylation of the ERK1/2 kinases” value (ERK1/2; by 2 hours) was “declines to negligible levels”, the “Total and phosphorylated levels of PDK1” value (PDK1) was “remain unchanged” and the “Phosphorylation levels of p38” value [1] was “decrease in a dose-dependent manner”. For the same compound, the cytotoxicity (MM cells) was “cytotoxic”, the “effect on normal versus malignant cells” value (MM cells) was “differential effect” and the MKP1 levels (MKP1) was “unaltered”.
